Here are results for two molecules from PMC9103815, “Phytochemical Analysis, α-Glucosidase and α-Amylase Inhibitory Activities and Acute Toxicity Studies of Extracts from Pomegranate (Punica granatum) Bark, a Valuable Agro-Industrial By-Product” (Foods, 2022).

A word on the IC50: it is the concentration that inhibits the measured activity by half. Low readings indicate inhibition by little substance, high ones a need for much substance.

The test deals with T1, pancreatic α-amylase (Homo sapiens, UniProt P04746).
T1 construct: purchased Sigma-Aldrich
T1 sequence (P04746 16-511): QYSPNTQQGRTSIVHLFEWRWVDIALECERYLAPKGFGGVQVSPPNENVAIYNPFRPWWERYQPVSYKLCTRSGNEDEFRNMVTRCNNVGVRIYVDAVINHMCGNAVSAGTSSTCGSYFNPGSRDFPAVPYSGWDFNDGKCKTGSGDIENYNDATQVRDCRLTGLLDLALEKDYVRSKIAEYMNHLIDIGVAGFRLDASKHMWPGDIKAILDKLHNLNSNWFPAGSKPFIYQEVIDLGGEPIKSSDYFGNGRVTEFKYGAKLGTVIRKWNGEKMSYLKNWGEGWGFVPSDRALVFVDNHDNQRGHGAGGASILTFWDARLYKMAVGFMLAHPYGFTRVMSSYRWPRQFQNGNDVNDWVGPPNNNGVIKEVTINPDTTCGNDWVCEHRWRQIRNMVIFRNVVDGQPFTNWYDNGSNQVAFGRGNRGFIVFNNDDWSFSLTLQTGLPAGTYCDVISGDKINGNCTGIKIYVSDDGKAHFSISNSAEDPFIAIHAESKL
Nature of the test: In vitro inhibition of pancreatic α-amylase (starch, DNSA). In kind it is biochemical. Conditions: pure commercial standards; triplicate; Figure 7 A-C.

Method: Pancreatic α-amylase inhibition activity was assessed according to the method described by Daoudiet al. [25]. […] The solutions were prepared by dissolving the enzymes and samples in a phosphate buffer solution (0.1 M, pH 6.9). The mixtures were incubated for 10 min at 37 °C. Next, 200 μL of 1% starch also dissolved in a phosphate buffer was added to the reaction mixture, and all test tubes were incubated for another 20 min at 37 °C. To stop the reaction, 600 μL of DNSA (1 g of 3,5-dinitrosalicylic acid dissolved in 20 mL of NaOH(2N), combined with 30 g of KNaC4H4O6, and filled up to 100 mL with distilled water) was added. Afterward, the mixture was posed in a water bath at 100 °C for 8 min, then it was put in an ice-cold-water bath for a few minutes. About 1 mL of distilled water was added to the sample tubes before their absorbance measurement at 540 nm.
The percentage of inhibition was computed using the following formula:(2) Inhibitory activity (%)=Abs control 540 nm− Abs sample 540 nm/Abs control 540 nm×100
Increasing concentrations were utilized to calculate the IC50 value. The enzymatic assays were carried out as indicated above.

On to `Oc1cc(O)c2c(c1)O[C@@H](c1ccc(O)c(O)c1)[C@H](O)C2` [Catechin, (−)-catechin], for which half-maximal inhibition (IC50) was put at 30.8 ± 2.11 µM.

Regarding `O=c1oc2c(O)c(O)cc3c(=O)oc4c(O)c(O)cc1c4c23` [Ellagic acid], the midpoint of inhibition, the IC50, lay at 29.4 ± 4.57 µM.
